Laboratory results as given in the supplement of paper PMC10307832.

Columns and labels:
Experiment in all cases: relative viability (nuclei count vs DMSO), 5 days (fraction); higher = more cells survive
Motesanib + Crizotinib = compound: CC1(C)CNc2cc(NC(=O)c3cccnc3NCc3ccncc3)ccc21 [Motesanib] + C[C@@H](Oc1cc(-c2cnn(C3CCNCC3)c2)cnc1N)c1c(Cl)ccc(F)c1Cl [Crizotinib] (partner 1 µM)
In short: (§1)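 Lung cancer cell lines were pin-tool dosed in 1536-well plates on the day after seeding, with either a lone drug or a fixed anchor-drug dose plus five library-drug doses (not always all listed) in √10 steps. Nuclei were counted on 4× images after 5 days. Relative viability is the ratio of treated-well to vehicle-well nuclei counts, with each value a median of duplicate plates.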

Motesanib + Linsitinib = compound: CC1(C)CNc2cc(NC(=O)c3cccnc3NCc3ccncc3)ccc21 [Motesanib] + C[C@]1(O)C[C@@H](c2nc(-c3ccc4ccc(-c5ccccc5)nc4c3)c3c(N)nccn32)C1 [Linsitinib] (partner 1 µM)
In short: as §1

[1] = compound: C[C@@]1(C(=O)Nc2ccc(F)nc2)CCCN1c1nc(Nc2cc(C3CC3)n[nH]2)c2cccn2n1 + CC(=O)c1c(C)c2cnc(Nc3ccc(N4CCNCC4)cn3)nc2n(C2CCCC2)c1=O [Palbociclib] (partner 0.5 µM)
In short: as §1

[2] = compound: C[C@@]1(C(=O)Nc2ccc(F)nc2)CCCN1c1nc(Nc2cc(C3CC3)n[nH]2)c2cccn2n1 + Nc1ncn([C@H]2C[C@H](O)[C@@H](CO)O2)c(=O)n1 [Decitabine] (partner 2 µM)
In short: as §1

| Cell Line | relative viability (Motesanib + Crizotinib; first compound 0.01 µM) | relative viability (Motesanib + Crizotinib; first compound 0.03162 µM) | relative viability (Motesanib + Crizotinib; first compound 0.1 µM) | relative viability (Motesanib + Crizotinib; first compound 0.3162 µM) | relative viability (Motesanib + Crizotinib; first compound 1 µM) | relative viability (Motesanib + Linsitinib; first compound 0.01 µM) | relative viability (Motesanib + Linsitinib; first compound 0.03162 µM) | relative viability (Motesanib + Linsitinib; first compound 0.1 µM) | relative viability (Motesanib + Linsitinib; first compound 0.3162 µM) | relative viability (Motesanib + Linsitinib; first compound 1 µM) | relative viability ([1]; first compound 0.04 µM) | relative viability ([1]; first compound 0.1265 µM) | relative viability ([1]; first compound 0.4 µM) | relative viability ([1]; first compound 1.265 µM) | relative viability ([2]; first compound 0.04 µM) | relative viability ([2]; first compound 0.1265 µM) | relative viability ([2]; first compound 0.4 µM) | relative viability ([2]; first compound 1.265 µM) |
| --- | --- | --- | --- | --- | --- | --- | --- | --- | --- | --- | --- | --- | --- | --- | --- | --- | --- | --- |
| 201T | 1.02 | 1.07 | 1.04 | 1.04 | 1.06 | 1 | 1.09 | 1.03 | 1.05 | 1.02 | 0.317 | 0.264 | 0.311 | 0.365 | 0.813 | 0.714 | 0.671 | 0.862 |
| A549 | 0.741 | 0.663 | 0.746 | 0.754 | 0.777 | 0.532 | 0.633 | 0.571 | 0.624 | 0.773 | – | – | – | – | 0.284 | 0.248 | 0.326 | 0.199 |
| A-427 | 0.933 | 0.892 | 0.983 | 0.888 | 1.04 | 1.06 | 1.11 | 1.07 | 1.22 | 1.22 | 0.497 | 0.459 | 0.459 | 0.472 | 0.514 | 0.413 | 0.489 | 0.501 |
| ABC-1 | 0.996 | 1.03 | 1.26 | 1.14 | 1.32 | 1.01 | 0.891 | 0.752 | 0.587 | 0.774 | 0.647 | 0.42 | 0.437 | 0.477 | 1.01 | 0.714 | 0.628 | 0.785 |
| BEN | 0.792 | 0.85 | 0.803 | 0.928 | 0.978 | 0.932 | 0.842 | 1.08 | 0.886 | 1.05 | 0.445 | 0.484 | 0.472 | 0.427 | 0.702 | 0.583 | 0.737 | 0.562 |
| CAL-12T | 0.627 | 0.56 | 0.664 | 0.758 | 0.559 | 0.81 | 0.801 | 0.876 | 0.882 | 0.822 | 0.407 | 0.407 | 0.358 | 0.164 | – | – | – | – |
| COR-L23 | 0.512 | 0.639 | 0.703 | 0.643 | 0.547 | 0.943 | 0.862 | 0.92 | 1.09 | 0.905 | 0.242 | 0.308 | 0.197 | 0.173 | 0.413 | 0.412 | 0.315 | 0.267 |
| COR-L 105 | 0.981 | 0.739 | 0.743 | 0.73 | 0.756 | 0.872 | 1.22 | 1.04 | 0.889 | 1.17 | 0.416 | 0.422 | 0.435 | 0.438 | 0.697 | 0.547 | 0.541 | 0.588 |
| Calu-6 | 0.794 | 0.744 | 0.78 | 0.758 | 0.783 | 0.971 | 0.932 | 0.961 | 0.955 | 1.08 | – | – | – | – | – | – | – | – |
| ChaGo-K-1 | – | 1.16 | 1.1 | 1.18 | 1.15 | – | – | – | – | – | 0.972 | 0.828 | 0.86 | 0.93 | 0.511 | 0.52 | 0.499 | 0.503 |
| EBC-1 | 0.178 | 0.19 | 0.205 | 0.193 | 0.181 | 0.829 | 0.941 | 0.978 | 0.959 | 0.937 | – | – | – | – | – | – | – | – |
| EKVX | 0.988 | 0.889 | 0.916 | 1.09 | 0.898 | 0.939 | 0.98 | 1.06 | 1.12 | 1.07 | 0.387 | 0.277 | 0.279 | 0.286 | 0.29 | 0.246 | 0.357 | 0.288 |
| EMC-BAC-2 | 0.761 | 0.656 | 0.765 | 0.739 | 0.674 | 0.828 | 0.805 | 0.827 | 0.817 | 0.86 | 0.393 | 0.333 | 0.331 | 0.369 | 0.709 | 0.737 | 0.578 | 0.717 |
| EPLC-272H | 0.935 | 0.969 | 1.05 | 1.04 | 0.944 | 1.23 | 1.26 | 1.26 | 1.24 | 1.38 | 0.253 | 0.308 | 0.285 | 0.261 | 0.348 | 0.306 | 0.279 | 0.336 |
| H3255 | 0.793 | 0.883 | 0.986 | 0.838 | 0.863 | 0.949 | 1.02 | 0.913 | 1.06 | 0.871 | 0.314 | 0.326 | 0.299 | 0.317 | 0.587 | 0.622 | 0.521 | 0.65 |
| HARA | 1.1 | 0.993 | 1.06 | 1.1 | 1.04 | 0.967 | 0.909 | 1.02 | 1.09 | 1.14 | 0.238 | 0.189 | 0.159 | 0.218 | 0.445 | 0.436 | 0.418 | 0.513 |
